Data from US11903955B2, “Methods of treating heart failure with reduced ejection fraction” (ASTRAZENECA AB, priority 2019, dated 2024).
Where two headings read alike, the source gives them in different places. Marks after values point to notes of the source that are not given here.

System: patients with chronic heart failure with reduced ejection fraction (LVEF ≤40%)
Settings: for Cardiovascular death or hospitalization for heart failure, Hazard Ratio (95% CI) / Cardiovascular death, Hazard Ratio (95% CI) / Death from any cause, Hazard Ratio (95% CI) / Hospitalization for heart failure or an urgent heart failure visit, Hazard Ratio (95% CI) / Hospitalization for heart failure, Hazard Ratio (95% CI) / Primary composite outcome, Hazard Ratio (95% CI) / Urgent heart failure visit, Hazard Ratio (95% CI) / Worsening renal function (composite), Hazard Ratio (95% CI) / Total number of (first and recurrent) heart failure hospitalizations and cardiovascular death, rate ratio (95% CI) / HR (95% CI) for primary outcome of CV death or worsening HF: dapagliflozin vs placebo; for Total number of (first and recurrent) heart failure hospitalizations and cardiovascular death, rate ratio (95% CI): LWYY method
Text: Eligibility requirements included an age of at least 18 years, New York Heart Association (NYHA) class II, III, or IV symptoms, and an ejection fraction of 40% or less. […] Patients with atrial fibrillation or atrial flutter on their baseline electrocardiogram were required to have a NT-proBNP level of at least 900 pg/mL, irrespective of history of heart failure hospitalization. Patients were required to receive standard drug and device therapy for heart failure including an angiotensin-converting enzyme (ACE) inhibitor, angiotensin receptor blocker (ARB), or sacubitril/valsartan; a beta-blocker, unless contraindicated or not tolerated, and a mineralocorticoid receptor (MR) […], if considered appropriate. Doses were required to be individually optimized, in accordance with the targets recommended in guidelines, and stable for at least 4 weeks (excepting diuretics, which could be dosed flexibly). Investigators were advised that patients with type 2 diabetes should continue to take their glucose-lowering therapies, but these could be adjusted as required. Specifically, the protocol stated that the dose of insulin, sulfonylurea treatment, or both, could be reduced to minimize the risk of hypoglycemia, for example in patients with a baseline hemoglobin A1C (HbA1c) level below 7%.
All the patients provided written informed consent and entered a 14-day enrollment period during which the trial inclusion and exclusion criteria were checked and baseline information gathered, including findings from clinical examination and laboratory measurements. […] Investigators used an interactive voice or web response system to obtain treatment assignment. Randomization was stratified based on a diagnosis of type 2 diabetes, defined as either an established diagnosis or a HbA1c level of 6.5% or greater (≥48 mmol/mol) confirmed in a central laboratory at screening. Patients were evaluated at 14 days and 60 days after randomization, with a focus on assessment of heart failure and volume status, adverse events, and checking renal function and potassium. Further study visits took place at 4 months and at 4-month intervals thereafter. The protocol required that study drug be permanently discontinued if pregnancy or diabetic ketoacidosis occurred.
The primary outcome was a composite of a first episode of worsening heart failure or death from cardiovascular causes. An episode of worsening heart failure was either an unplanned hospitalization for heart failure or an urgent heart failure visit requiring intravenous therapy.^14 The first of the secondary outcomes was the composite of heart failure hospitalization or cardiovascular death.
Outcomes were adjudicated by a clinical-end-points committee, blinded to treatment assignment, according to prespecified criteria.
Using a two-sided alpha of 5%, we calculated that 844 primary endpoints would provide a statistical power of 90% for the test of the hypothesis. With an expected annual event rate of 11% in the placebo treatment group, approximately 4500 patients were estimated to provide the required number of primary events, based on an anticipated recruitment period of 18 months and an average follow-up period of approximately 24 months. A closed testing procedure was used, including a prespecified hierarchical testing of the primary and secondary endpoints in the order specified above. Type I error was controlled at a two-sided 0.0499 alpha level for multiplicity across primary and secondary endpoints and taking account of one interim efficacy analysis.
Data from all randomly assigned patients were included in the analyses of the primary and secondary outcomes, according to the intention-to-treat principle. Baseline characteristics were summarized as means and standard deviations, medians and inter-quartile ranges, or percentages.

[1] = all patients (N = 2373), listed as dapagliflozin
[2] = all patients, listed as dapagliflozin

Compound: CCOc1ccc(Cc2cc([C@@H]3O[C@H](CO)[C@@H](O)[C@H](O)[C@H]3O)ccc2Cl)cc1 [Dapagliflozin, dapagliflozin]
- Worsening renal function (composite), No. (%) (all patients (N = 2373)): 28 (1.2) No. (%)
- Cardiovascular death or hospitalization for heart failure, No. (%) [1]: 382 No. (%)
- Cardiovascular death, No. (%) [1]: 227 No. (%)
- Hospitalization for heart failure, No. (%) [1]: 231 (9.7%) No. (%)
- Primary composite outcome (urgent heart failure visit, hospitalization for heart failure or cardiovascular death), No. (%) (all patients, 10 mg once daily (N = 2373), median follow-up 18.2 months): 386 (16.3) No. (%)
- hospitalizations for heart failure, total first and recurrent (all patients, dapagliflozin arm): 340
- Cardiovascular death or hospitalization for heart failure, Hazard Ratio (95% CI) (No T2DM): 0.73 (0.60-0.89)
- Cardiovascular death, Hazard Ratio (95% CI) (No T2DM): 0.85 (0.66-1.10)
- Death from any cause, Hazard Ratio (95% CI) (No T2DM): 0.88 (0.70-1.12)
- Hospitalization for heart failure or an urgent heart failure visit, Hazard Ratio (95% CI) (No T2DM): 0.62 (0.48-0.80)
- Hospitalization for heart failure, Hazard Ratio (95% CI) (No T2DM): 0.63 (0.48-0.81)
- Primary composite outcome, Hazard Ratio (95% CI) (No T2DM): 0.73 (0.60 to 0.88)
- Urgent heart failure visit, Hazard Ratio (95% CI) (No T2DM): 0.25 (0.07-0.89)
- Worsening renal function (composite), Hazard Ratio (95% CI) (No T2DM): 0.67 (0.30-1.49)
- Total number of (first and recurrent) heart failure hospitalizations and cardiovascular death, rate ratio (95% CI) (No T2DM): 0.73 (0.59, 0.91)
- Cardiovascular death or hospitalization for heart failure, Hazard Ratio (95% CI) (T2DM): 0.75 (0.63-0.90)
- Cardiovascular death, Hazard Ratio (95% CI) (T2DM): 0.79 (0.63-1.01)
- Death from any cause, Hazard Ratio (95% CI) (T2DM): 0.78 (0.63-0.97)
- Hospitalization for heart failure or an urgent heart failure visit, Hazard Ratio (95% CI) (T2DM): 0.77 (0.61-0.95)
- Hospitalization for heart failure, Hazard Ratio (95% CI) (T2DM): 0.76 (0.61-0.95)
- Primary composite outcome, Hazard Ratio (95% CI) (T2DM): 0.75 (0.63 to 0.90)
- Urgent heart failure visit, Hazard Ratio (95% CI) (T2DM): 0.62 (0.24-1.59)
- Worsening renal function (composite), Hazard Ratio (95% CI) (T2DM): 0.73 (0.39-1.34)
- Total number of (first and recurrent) heart failure hospitalizations and cardiovascular death, rate ratio (95% CI) (T2DM): 0.77 (0.63, 0.94)
- Cardiovascular death or hospitalization for heart failure, Hazard Ratio (95% CI) (all patients): 0.75 (0.65-0.85)
- Cardiovascular death, Hazard Ratio (95% CI) (all patients): 0.82 (0.69-0.98)
- Death from any cause, Hazard Ratio (95% CI) (all patients): 0.83 (0.71-0.97)
- Hospitalization for heart failure or an urgent heart failure visit, Hazard Ratio (95% CI) (all patients): 0.70 (0.59-0.83)
- Hospitalization for heart failure, Hazard Ratio (95% CI) (all patients): 0.70 (0.59-0.83)
- Primary composite outcome, Hazard Ratio (95% CI) (all patients): 0.74 (0.65-0.85)
- Urgent heart failure visit, Hazard Ratio (95% CI) (all patients): 0.43 (0.20-0.90)
- Worsening renal function (composite), Hazard Ratio (95% CI) (all patients): 0.71 (0.44-1.16)
- Total number of (first and recurrent) heart failure hospitalizations and cardiovascular death, rate ratio (95% CI) (all patients): 0.75 (0.65-0.88)‡
- Total number of (first and recurrent) heart failure hospitalizations and cardiovascular death, rate ratio (95% CI) [2]: 0.75
- Cardiovascular death or hospitalization for heart failure, Hazard Ratio (95% CI) [2]: 0.75
- Cardiovascular death, Hazard Ratio (95% CI) [2]: 0.82
- Death from any cause, Hazard Ratio (95% CI) [2]: 0.83
- Hospitalization for heart failure, Hazard Ratio (95% CI) [2]: 0.70
- Primary composite outcome, Hazard Ratio (95% CI) [2]: 0.74
- Worsening renal function (composite), Hazard Ratio (95% CI) [2]: 0.71
- HR (95% CI) for primary outcome of CV death or worsening HF (highest tertile of baseline KCCQ-TSS (>87.5)): 0.62 (0.46-0.83)
- HR (95% CI) for primary outcome of CV death or worsening HF (lowest tertile of baseline KCCQ-TSS (≤65.6)): 0.70 (0.57-0.86)
- HR (95% CI) for primary outcome of CV death or worsening HF (middle tertile of baseline KCCQ-TSS (65.7-87.5)): 0.77 (0.61-0.98)
- numbers of patients who would need to have been treated to prevent one primary event (over the duration of the trial): 21
- hazard ratio for the primary outcome (patients without diabetes, highest third of glycated hemoglobin (≥6.0%), dapagliflozin versus placebo): 0.72 (0.52, 1.00)
- hazard ratio for the primary outcome (patients without diabetes, lowest third of glycated hemoglobin (≤5.6%), dapagliflozin versus placebo): 0.74 (95% CI 0.53, 1.04)
- hazard ratio for the primary outcome (patients without diabetes, middle third of glycated hemoglobin (>5.6-<6.0%), dapagliflozin versus placebo): 0.71 (0.48, 1.04)
- hazard ratio for the primary outcome (post hoc subgroup: patients not taking sacubitril-valsartan, dapagliflozin to placebo): 0.74
- hazard ratio for the primary outcome (post hoc subgroup: patients taking sacubitril-valsartan at baseline, dapagliflozin to placebo): 0.75
